One test deals with MEF 1 cells. Conditions: MEF 1 cells with induced LDL receptors; cited from earlier work.
The next test deals with VLDL. Conditions: peptide interacting with VLDL; cited from earlier work.
The test system of test [1] is Apo E null mice. The experiment in a line: Study One: atherosclerotic lesions (en face aorta, aortic sinus, macrophage coverage) in Apo E null mice. Type of test: in vivo. On the procedure: (§1) The mice were fed a Western diet for 6 weeks to elevate cholesterol. The animals were then switched to a chow diet for two weeks after which they were treated with peptide or saline for 4 weeks. Treatment was then withdrawn for 4 weeks while the animals remained on a chow diet. After the 4 week post treatment phase, the mice were euthanized and tissue dissection and sample collection was performed.
(§2) The mice were euthanized at week 30, which is four weeks post treatment with Apo E mimetic.

Test [2] relates to Apo E null mice. Description: Study One: plasma markers of oxidative stress (ROS, PON activity) in Apo E null mice. The class given is in vivo. On the procedure: as §1
(§3) Blood was drawn after 4 weeks of treatment at week 26 and analyzed for cholesterol. […] However, Apo E mimetic treatment did improve plasma marker of oxidative stress, such as ROS and PON activity. […] Because ROS have been implicated in the pathogenesis of atherosclerosis, the decrease in ROS by treatment with an Apo E mimetic is beneficial.
The PON gene family has anti-atherosclerotic effects, such as preventing oxidation of LDLs. Thus, the increase in PON activity in hE18A treated mice is beneficial in the atherosclerosis animal model.
as §2

For test [3], the system named is Apo E null mice. Description: Study One: plasma cholesterol and triglycerides in Apo E null mice. Type of test: in vivo. The method, then: as §1, §3, §2
For the next test, the system named is cells. Conditions: peptide-associated VLDL, absence of apoE; cited from earlier work.
In test [4] the test system is Apo E −/− mice. The experiment in a line: Study Two: plasma and liver lipids in Apo E -/- mice. The class given is in vivo. Particulars: four weeks after cessation of treatment. On the procedure:
(§4) The mice were fed a lard diet for seven weeks and then were switched to a chow diet for four weeks. The mice were treated two times a week for four weeks and then treatment was withdrawn for four weeks. Termination 1 represents the time point immediately following termination of the Apo E mimetic treatment. Termination 2 represents the time point immediately following the four weeks of treatment withdrawal. Lipids were analyzed in the plasma (cholesterol, triglycerides) and in the liver (cholesterol esters, unesterified cholesterol, triglycerides).

The subject of test [5] is Apo E −/− mice. The experiment in a line: Study Two: plaques in the aorta of Apo E -/- mice. Type of test: in vivo. Particulars: 5 mg/kg. On the procedure: as §4
Where [6] appears, read: 4 weeks post treatment (study termination).
Setting [7] is: four weeks after the end of treatment.

Take LRKMRKRLMR-18A [Ac-mE-18A-NH2]: in the test with MEF 1 cells, the “enhancement of LDL internalization” value is on record as “three”.
With “Ac-D-W-L-K-A-F-Y-D-K-V-A-E-K-L-K-E-A-F-NH2 (Ac-DWLKAFYDKVAEKLKEAF-NH2) [Ac-18A-NH2, control peptide, reference compound]”, the “displacement of apo E from VLDL” value with VLDL is on record as “displacement of apo E from VLDL”.
For “LRKLRKRLLRDWLKAFYDKVAEKLKEAF (ApoE mimetic) [hE18A]”, in the test on Apo E null mice [1] (setting [6]), the “atherosclerotic lesion area in the aortic sinus” value is on record as “significantly decreased” and the “macrophage coverage of the aortic sinus” value is recorded as “non-significant trend towards a decrease”. Besides, the “atherosclerotic lesion area (en face aorta)” value with Apo E null mice [1] (4 weeks post treatment, compared to saline or mR18L) was “significantly reduced”. For the same substance, the PON-1 activity result in the test with Apo E null mice [2] (4 weeks post treatment, over saline and mR18L) is reported as “still increased”. Further, the “reactive oxygen species (ROS)” value with Apo E null mice [2] (after 4 weeks of treatment, compared to saline) was “significant decrease”. In the test on Apo E null mice [2] (after 4 weeks of treatment, compared to saline and mR18L), the “paraoxonase (PON) activity” value was “significant increase”. Further, the ROS levels result in the test on Apo E null mice [2] (setting [7]) is listed as “not significantly different”. Moreover, the plasma cholesterol levels result with Apo E null mice [3] (end of 4 weeks of treatment, compared to mR18L and saline) is given as “better in reducing plasma cholesterol levels”. Besides, the cholesterol levels entry in the test with Apo E null mice [3] (setting [7]) is “not significantly different”.
As to “Ac-LRKLRKRLLRDWLKAFYDKVAEKLKEAF-NH2 [Ac-hE18A-NH2, end protected analog of hE-18A]”, in the test on cells, the “enhancement of degradation of VLDL compared to VLDL alone” value is on record as “three” and the “enhancement of uptake of VLDL compared to VLDL alone” value is “six”. For the same substance, the “PON-1 levels in HDL fractions” value in the test with Apo E null mice [2] (Apo E null mice, HDL fractions 29-32) is “dramatic increase”. In addition, the “displacement of apo E from VLDL” value in the test on VLDL was “displacement of apo E from VLDL”. For the same substance, the cholesterol levels entry in the test with Apo E −/− mice [4] is on record as “about 650 mg/dl”. The “decrease of atherosclerotic lesions in the thoracic aorta” value in the test on Apo E −/− mice [5] is given as “about 50%”. In addition, the “reduction of lesions in the aortic arch” value with Apo E −/− mice [5] (at the end of treatment) is reported as “about 35%”.
Consider LRRLRRRLLR-18A [Ac-hE(R)-18A-NH2], for which, in the test on MEF 1 cells, the “enhancement of LDL internalization” value is recorded as “seven”.

The values above are taken from patent US20160002315A1, “APOLIPOPROTEIN MIMETICS AND USES THEREOF” (UAB RESEARCH FOUNDATION, priority 2013, published 2016).
